Read-outs that look alike come from different tables or passages of the source.
Key:
[1] = tested on: TGF-β; assay: AlphaScreen SureFire p-SMAD3 (Ser423/425) assay, TGF-β-stimulated cells; type: cell-based; details: Mus musculus
Procedure, shortened: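 The p-SMAD-3 (Ser423/425) SureFire assay measured phosphorylation of endogenous SMAD-3 in cell lysates. Cells were plated overnight in collagen-coated plates, exposed to three-fold serially diluted compounds for about 10 minutes, then stimulated with TGFβ. Lysates (5 μL) received acceptor bead mix for 2 hours, then donor beads for 1½ hours before AlphaScreen reading.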

[2] = tested on: GDF8; assay: AlphaScreen SureFire p-SMAD3 (Ser423/425) assay, GDF8-stimulated cells; type: cell-based; details: Mus musculus
Procedure, shortened: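 A SureFire AlphaScreen assay measured phosphorylation of endogenous SMAD-3 at Ser423/425 in cell lysates. Cells were treated with three-fold serially diluted compounds in DMSO for about 10 minutes, then stimulated with GDF8. After medium removal, cells were lysed in 1× Lysis Buffer (about 25 μL) with gentle shaking for 5-10 minutes.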

[3] = p-SMAD3 (Ser423/425) AlphaScreen in cell lysate, MPC-11, TGF-β stimulation, read-out: TGF-β: inhibition of TGF-β signaling, TGF-β pSMAD (MPC-11)
[4] = MPC-11, p-SMAD3 (Ser423/425) AlphaScreen in cell lysate, MPC11, GDF8 stimulation, read-out: GDF8: inhibition of GDF8 signaling, GDF pSMAD (MPC11)
[5] = MPC-11, read-out: TGF-β: inhibition of TGF-β signaling, TGF-β pSMAD (MPC-11), p-SMAD3 (Ser423/425) AlphaScreen in cell lysate, TGF-β stimulation
[6] = MPC-11, read-out: GDF8: inhibition of GDF8 signaling, GDF pSMAD (MPC11), p-SMAD3 (Ser423/425) AlphaScreen in cell lysate, GDF8 stimulation

SMILES | IC50 [1, 3] | IC50 [2, 4] | IC50 [1, 5] | IC50 [2, 6]
Cc1ccc(F)cc1-c1nc2n(c1-c1ccc3ncsc3c1)CCC2 [Compound 301, 6-(2-(5-fluoro-2-methylphenyl)-6,7-dihydro-5H-pyrrolo[1,2-a]imidazol-3-yl)benzo[d]thiazole] | – | – | > 1000 nM | 100 to 1000 nM
CC(C)c1nnc2ccc(-c3c(-c4cc(F)c(F)cc4F)nc4n3CCC4)cn12 [Compound 21, 3-isopropyl-6-(2-(2,4,5-trifluorophenyl)-6,7-dihydro-5H-pyrrolo[1,2-a]imidazol-3-yl)-[1,2,4]triazolo[4,3-a]pyridine] | > 1000 nM | > 1000 nM | – | –
Fc1cc(F)c(F)c(-c2nc3n(c2-c2ccc4ncc(-n5ccnc5)nc4c2)CCC3)c1 [Compound 359, 2-(1H-imidazol-1-yl)-7-(2-(2,3,5-trifluorophenyl)-6,7-dihydro-5H-pyrrolo[1,2-a]imidazol-3-yl)quinoxaline] | – | – | 100 to 1000 nM | 50 to 100 nM
COCCOc1cnc2ccc(-c3c(-c4cc(Cl)ccc4F)nc4n3CCC4)cc2n1 [Compound 354, 7-(2-(5-chloro-2-fluorophenyl)-6,7-dihydro-5H-pyrrolo[1,2-a]imidazol-3-yl)-2-(2-methoxyethoxy)quinoxaline] | – | – | < 50 nM | 50 to 100 nM
O=C(O)C1CCC2(CC1)Cc1nc(-c3ccc(F)cc3)c(-c3ccc4ncnn4c3)n1C2 (stereo not drawn) [Compound 76, 3′-([1,2,4]triazolo[1,5-a]pyridin-6-yl)-2′-(4-fluorophenyl)-5′H,7′H-spiro[cyclohexane-1,6′-pyrrolo[1,2-a]imidazole]-4-carboxylic acid] | – | – | > 1000 nM | > 1000 nM
Fc1ccccc1-c1nc2n(c1-c1ccc3cn[nH]c3c1)CCC2 [Compound 198, 6-(2-(2-fluorophenyl)-6,7-dihydro-5H-pyrrolo[1,2-a]imidazol-3-yl)-1H-indazole] | > 1000 nM | > 1000 nM | – | –
Cc1cc(F)c(-c2nc3n(c2-c2ccc4nccnc4c2)CCC3)cc1F [Compound 286, 6-(2-(2,5-difluoro-4-methylphenyl)-6,7-dihydro-5H-pyrrolo[1,2-a]imidazol-3-yl)quinoxaline] | – | – | > 1000 nM | > 1000 nM
COc1cccc(-c2nc3n(c2-c2ccc4[nH]ncc4c2)CCC3)c1 [Compound 185, 5-(2-(3-methoxyphenyl)-6,7-dihydro-5H-pyrrolo[1,2-a]imidazol-3-yl)-1H-indazole] | – | – | 100 to 1000 nM | 100 to 1000 nM
Cc1cc(-c2nc3n(c2-c2ccc4ncccc4c2)CCC3)cc(Cl)c1F [Compound 275, 6-(2-(3-chloro-4-fluoro-5-methylpheny)-6,7-dihydro-5H-pyrrolo[1,2-a]imidazol-3-yl)quinoline] | > 1000 nM | > 1000 nM | – | –
Fc1cc(-c2nc3n(c2-c2ccc4nccn4c2)CCC3)c(F)cc1Cl [Compound 19, 6-(2-(4-chloro-2,5-difluorophenyl)-6,7-dihydro-5H-pyrrolo[1,2-a]imidazol-3-yl)imidazo[1,2-a]pyridine] | > 1000 nM | > 1000 nM | – | –
Cc1cc(-c2nc3n(c2-c2ccc4ncsc4c2)CCC3)cc(C)c1F [Compound 277, 6-(2-(4-fluoro-3,5-dimethylphenyl)-6,7-dihydro-5H-pyrrolo[1,2-a]imidazol-3-yl)benzo[d]thiazole] | > 1000 nM | > 1000 nM | – | –
Fc1cc(-c2nc3n(c2-c2ccc4ncnn4c2)CCC3)c(F)cc1Cl [Compound 18, 6-(2-(4-chloro-2,5-difluorophenyl)-6,7-dihydro-5H-pyrrolo[1,2-a]imidazol-3-yl)-[1,2,4]triazolo[1,5-a]pyridine] | > 1000 nM | 100 to 1000 nM | – | –
Cc1cc(-c2nc3n(c2-c2ccc4[nH]ncc4c2)CCC3)ccc1F [Compound 172, 5-(2-(4-fluoro-3-methylphenyl)-6,7-dihydro-5H-pyrrolo[1,2-a]imidazol-3-yl)-1H-indazole] | – | – | 50 to 100 nM | < 50 nM
Fc1cc(F)c(-c2nc3n(c2-c2ccc4nccn4c2)CCC3)cc1F [Compound 12] | 100 to 1000 nM | < 50 nM | – | –
Fc1ccc(-c2nc3occn3c2-c2ccc3cn[nH]c3c2)c(F)c1 [Compound 155, 6-(2,4-difluorophenyl)-5-(1H-indazol-6-yl)imidazo[2,1-b]oxazole] | 100 to 1000 nM | 50 to 100 nM | – | –
Fc1cc(F)c(F)c(-c2nc3n(c2-c2ccc4[nH]ncc4c2)CCC3)c1 [Compound 236, 5-(2-(2,3,5-trifluorophenyl)-6,7-dihydro-5H-pyrrolo[1,2-a]imidazol-3-yl)-1H-indazole] | – | – | > 1000 nM | 100 to 1000 nM
Fc1ccc(-c2nc3occn3c2-c2ccc3ncsc3c2)c(F)c1F [Compound 161, 5-(benzo[d]thiazol-6-yl)-6-(2,3,4-trifluorophenyl)imidazo[2,1-b]oxazole] | 100 to 1000 nM | 50 to 100 nM | – | –

The next lines start with results.

IC50 [1, 3] | IC50 [2, 4] | SMILES | IC50 [1, 5] | IC50 [2, 6]
100 to 1000 nM | 100 to 1000 nM | COCCOc1cnc2ccc(-c3c(-c4cc(F)c(F)cc4F)nc4n3CCC4)cc2n1 [Compound 353, 2-(2-methoxyethoxy)-7-(2-(2,4,5-trifluorophenyl)-6,7-dihydro-5H-pyrrolo[1,2-a]imidazol-3-yl)quinoxaline] | – | –
50 to 100 nM | < 50 nM | Cc1cccc(-c2nc3n(c2-c2ccc4ncsc4c2)CCC3)c1 [Compound 170, 6-(2-(m-tolyl)-6,7-dihydro-5H-pyrrolo[1,2-a]imidazol-3-yl)benzo[d]thiazole] | – | –
100 to 1000 nM | 100 to 1000 nM | Cc1cc(F)c(Cl)cc1-c1nc2n(c1-c1ccc3ncsc3c1)CCC2 [Compound 297, 6-(2-(5-chloro-4-fluoro-2-methylphenyl)-6,7-dihydro-5H-pyrrolo[1,2-a]imidazol-3-yl)benzo[d]thiazole] | – | –
100 to 1000 nM | 50 to 100 nM | Cc1cc(-c2nc3n(c2-c2ccc4cn[nH]c4c2)CCC3)ccc1F [Compound 177, 6-(2-(4-fluoro-3-methylphenyl)-6,7-dihydro-5H-pyrrolo[1,2-a]imidazol-3-yl)-1H-indazole] | – | –
50 to 100 nM | < 50 nM | Fc1cc(F)c(-c2nc3occn3c2-c2ccc3[nH]ncc3c2)cc1F [Compound 152, 6-(2,4,5-trifluorophenyl)-5-(1H-indazol-5-yl)imidazo[2,1-b]oxazole] | – | –
100 to 1000 nM | 50 to 100 nM | Fc1ccc(-c2nc3occn3c2-c2ccc3[nH]ncc3c2)c(F)c1F [Compound 160, 6-(2,3,4-trifluorophenyl)-5-(1H-indazol-5-yl)imidazo[2,1-b]oxazole] | – | –
50 to 100 nM | < 50 nM | Fc1ccc(-c2nc3occn3c2-c2ccc3[nH]ncc3c2)cc1 [Compound 126, 6-(4-fluorophenyl)-5-(1H-indazol-5-yl)imidazo[2,1-b]oxazole] | – | –
50 to 100 nM | < 50 nM | Fc1ccc(-c2nc3occn3c2-c2ccc3nccn3c2)cc1F [Compound 137, 6-(3,4-difluorophenyl)-5-(imidazo[1,2-a]pyridin-6-yl)imidazo[2,1-b]oxazole] | – | –
100 to 1000 nM | < 50 nM | Fc1ccc(-c2nc3n(c2-c2ccc4[nH]ncc4c2)CCC3)cc1Cl [Compound 264, 5-(2-(3-chloro-4-fluoropheny)-6,7-dihydro-5H-pyrrolo[1,2-a]imidazol-3-yl)-1H-indazole] | – | –
50 to 100 nM | < 50 nM | Fc1cc(F)c(-c2nc3n(c2-c2ccc4ncsc4c2)CCC3)cc1F [Compound 218, 6-(2-(2,4,5-trifluorophenyl)-6,7-dihydro-5H-pyrrolo[1,2-a]imidazol-3-yl)benzo[d]thiazole] | – | –

Source: patent publication US10696693B2, “Fused imidazole derivatives as TGF-beta inhibitors” (Rigel Pharmaceuticals, Inc., priority 2014, dated 2020)
